Laboratory results taken from US20120252119A1, “METHODS FOR THE COLLECTION AND MATURATION OF OOCYTES” (priority 2009, published 2012).

Key:
[1] = system: FSH-induced oocyte maturation; test: EGFR kinase inhibitor on FSH-induced oocyte maturation in presence of cilostamide; type: cell-based, bovine
Protocol: The basic oocyte maturation medium (also referred to as the “IVM medium” or “IVM phase medium”) used for the IVM phase was a bovine maturation medium (termed Bovine VitroMat, Cook Australia), a medium formulated to closely replicate the ionic composition of bovine follicular fluid. Where indicated, the type-3 PDE specific inhibitor cilostamide (20 μM; Biomol Plymouth Meeting, Pa.) or the epidermal growth factor receptor (EGFR) kinase inhibitor, AG1478 (Alexis Biochemicals, San Diego, Calif.), were added to the IVM medium from a millimolar stock solution stored at −20° C. dissolved in DMSO. […]
At the end of the incubation, COCs were denuded and oocytes were fixed for 30 min in 4% paraformaldehyde in PBS (pH 7.4). Oocytes were then permeabilized in 0.1% Triton X-100 in 0.1% sodium citrate for 1 hour, then transferred to 0.001% 4′,6-diamidino-2-phenylindole (DAPI), a fluorescence stain for nuclear material, for 15 min. Oocytes were rinsed 3 times in PBS+0.03% BSA, mounted on slides and evaluated for nuclear status at 400× using an Olympus fluorescence microscope. Stages of germinal vesicle (GV) and subsequent meiotic development were assessed based on known techniques (Chohan and Hunter, 2003, Anim. Reprod. Sci. 76: 43-51). […]
Oocytes were then fixed and assessed for meiotic progression at 24 hours. […]

[2] = system: human oocytes; test: Human oocyte IVM, meiosis score; type: cell-based; settings: for % GV / % GVBD / % PB: IVM with 0.1 μM cilostamide and FSH
Protocol: Immature human cumulus-oocyte complexes (COC) were collected from young, healthy women (not from IVF patients). […] Oocyte pick-up was performed when the lead ovarian follicle reached 12 mm. Immature oocytes were then stratified to various treatments during either the Pre-IVM or IVM periods, as detailed below. In addition, time of removal of somatic cells from oocytes (denuding) during the oocyte maturation period was examined. The following trials were conducted: • Dose of PDE3-inhibitor (cilostamide) during IVM: 0 versus 0.1 versus 1.0 μM • cAMP modulators during Pre-IVM: control versus IBMX versus IBMX+forskolin • Effect of time of oocyte denuding on embryo development: 30 versus 40 versus 44-48 hours
At the oocyte pick-up, COC were collected immediately into pre-IVM treatments in VitroCollect medium (Cook Australia, Brisbane, Australia) and held for one hour. Following pre-IVM, COC were washed and then transferred to IVM treatments (e.g. dose of cilostamide) in VitroMat medium (Cook) and matured under standard conditions. At the various times post-denuding, oocytes were monitored for maturation (polar body [PB] extrusion). At the end of maturation (48 hours) a final meiosis score was given. As oocytes matured they were inseminated using standard intra-cytoplasmic sperm injection (ICSI) procedures using donor sperm. 24 hours later fertilisation rates were determined. Embryos were cultured for up to 6 days until developmental arrest using standard procedures.

[3] = system: cAMP content of the whole COCs; test: cAMP content of bovine COCs, radioimmunoassay; type: cell-based; settings: agent alone, up to 2 hours, FIG. 2
Protocol: Oocytes were aspirated with their cumulus vestments intact (COCs). A subset of the COCs were denuded of their cumulus vestment prior to assay (DO). Aspiration and subsequent selection procedures (pre-IVM phase) were performed for 2 hours where oocytes (COCs and DOs) were processed in various media (termed “pre-IVM phase media” or “pre-IVM media”). These included processing of oocytes either in follicular fluid, or in two types of collection medium. […] Cyclic AMP content of COCs and denuded oocytes (DOs), i.e. those oocytes cultured as COCs but denuded of their cumulus vestment prior to assay, were measured using a radioimmunoassay method described and validated previously (Reddoch et al., 1986, Endocrinology 119: 879-886). […] Briefly, supernatants were collected, evaporated, resuspended in assay buffer (50 mM sodium acetate, pH 5.5) and acetylated by the addition of triethylamine (AJAX Chemicals, Sydney, Australia) and acetic anhydride (BDH Laboratory Supplies, Poole, England) 2:1 v/v. cAMP was measured in duplicates after appropriate dilution. ^125I-labelled cAMP (specific activity of 2175 Ci/mM) and cAMP antibody (as prepared by Reddoch et al supra) were added to samples and left overnight at 4° C. […] The supernatant was removed and the pellet dried and counted using a gamma counter. […]

[4] = system: bovine oocytes; test: Bovine in vitro fertilization and embryo culture (cleavage, blastocyst development); type: cell-based
Protocol: At 24 or 30 hours after IVM, COCs were washed twice using Bovine VitroWash (Cook Australia), and transferred to insemination dishes containing in vitro fertilisation (IVF) medium (Bovine VitroFert, Cook Australia) supplemented with penicillamine (0.2 mM; Sigma), hypotaurine (0.1 mM; Sigma), and heparin (2 mg/ml; Sigma). Frozen semen from a single bull of proven fertility was used for insemination. Briefly, thawed semen was layered over a discontinuous (45%: 90%) Percoll gradient (Amersham Bioscience) and centrifuged for 20-25 minutes at 700 g. The supernatant was removed and the sperm pellet was washed with 500 μl Bovine VitroWash and centrifuged for a further 5 minutes at 200 g. […] Embryos were assessed for quality at Day 8 according to the definitions presented in Stingfellow and Seidel, 1998, Manual of the International Embryo Transfer Society. […]
Therefore, cumulus-oocyte complexes (COCs) were aspirated and selected in either follicular fluid, collection medium or collection medium supplemented with 100 μM forskolin (FSK) and 500 μM IBMX for 2 hours. […] Oocyte developmental capacity was then assessed after in vitro fertilization and embryo development was assessed by the cleavage rate and blastocyst rate on day 8. […]

[5] = system: oocyte-cumulus cell gap junctional communication; test: Oocyte-cumulus cell gap junctional communication assay (calcein transfer); type: cell-based, bovine; settings: after 3 hours of IVM culture post pre-IVM phase, FIG. 7
Protocol: Cumulus-oocyte gap junctional communication (GJC) was measured by quantitative fluorescence microscopy of calcein transfer to the oocyte as described previously (Thomas et al., 2004, In “Biol. Reprod.”, pp 1142-1149). GJC was measured either after 2 hours of pre-IVM phase or followed by an additional 3 hours of IVM with or without cilostamide (20 μM). A mean number of 10-12 oocytes were used in each treatment group in each of four replicate experiments. After culture, COCs were transferred to a solution of 1 μM calcein-AM (3′,6′-di(O-acetyl)-2′,7′-bis[N,N-bis(carboxymethyl)amino methyl]-fluorescein, tetraacetoxy methyl ester; C-3100; Molecular Probes; Eugene, Oreg., USA) freshly prepared in a BSA-free Bovine VitroCollect (Cook Australia) supplemented with polyvinyl alcohol (PVA; 0.3 mg/ml). […] Prior to fluorescence microphotometry, COCs were completely denuded of their surrounding cumulus cells using vigorous pipetting so that only dye confined within the denuded oocyte after transport via gap junctions was measured. Within 30 minutes of denuding, the intra-oocyte fluorescence emission of calcein in oocytes was measured using a fluorophotometric-inverted microscope (Leica, Wetzlar, Germany). […]

[6] = system: bovine oocytes; test: Oocyte nuclear morphology assessment (GV configuration, GVBD, meiotic progression); type: cell-based
Protocol: At the end of the incubation, COCs were denuded and oocytes were fixed for 30 min in 4% paraformaldehyde in PBS (pH 7.4). Oocytes were then permeabilized in 0.1% Triton X-100 in 0.1% sodium citrate for 1 hour, then transferred to 0.001% 4′,6-diamidino-2-phenylindole (DAPI), a fluorescence stain for nuclear material, for 15 min. Oocytes were rinsed 3 times in PBS+0.03% BSA, mounted on slides and evaluated for nuclear status at 400× using an Olympus fluorescence microscope. Stages of germinal vesicle (GV) and subsequent meiotic development were assessed based on known techniques (Chohan and Hunter, 2003, Anim. Reprod. Sci. 76: 43-51). In brief, GV chromatin of bovine oocytes was classified into: GV I—condensed filamentous chromatin around the nucleolus and nuclear membrane; GV II—filamentous chromatin surrounding the nucleolus; GV III—filamentous chromatin clumps are distributed in the nucleus and the nucleolus has disappeared; GV IV—chromatin has condensed into a thick clump; Early diakenesis-chromatin beginning to condense into a single lump; Diakenesis-chromatin has condensed into a single lump; Metaphase I—tetrads are aligned on the spindle; and Metaphase II—the metaphase chromatin is evident as well as a small chromatin-containing polar body.
Oocytes were then fixed and assessed for meiotic progression and classified as GV (germinal vesical intact—still under meiotic arrest) or GVBD (germinal vesical breakdown—resumption of meiosis). A mean number of 45 oocytes were used in each treatment group and time-point from four replicate experiments. The presence of letters (a or b) above each column indicate a statistical difference between the means as determined by ANOVA analysis followed by Bonferronni's post hoc test, P<0.05.
Oocytes were exposed to pre-IVM phase media comprising pure follicular fluid, collection medium, or collection medium supplemented with cAMP modulators (forskolin and IBMX) (A), followed by extended culture in the presence (C; E) or absence (B; D) of the type-3 PDE inhibitor, cilostamide (20 μM), plus follicle stimulating hormone. Oocytes were then fixed and assessed for GV configuration at 2, 5 and 9 hours. A mean number of 40 oocytes were used in each treatment group and time-point from four replicate experiments.
As indicated above, oocytes were aspirated and selected in either follicular fluid, collection medium or collection medium supplemented with 100 μM forskolin (FSK) and 500 μM IBMX for 2 hours. […] Oocytes were then fixed and assessed for meiotic progression at 20, 24 and 28 hours. A mean number of 45 oocytes were used in each treatment group and time-point from four replicate experiments.

For `COc1cc2ncnc(Nc3cccc(Cl)c3)c2cc1OC` [AG1478], the maturation percentage ([1]; FSH 100 mlU, cilostamide 20 μM, increasing doses of AG1478, 24 hours, from >80% without, FIG. 10) was “approximately 5%” and the “meiotic recovery of FSH and cilostamide treated COCs” value ([1]; increasing doses of AG1478) was “completely prevented the meiotic recovery”.
For `CC(C)Cn1c(=O)n(C)c(=O)c2[nH]cnc21` [IBMX, 3-isobutyl 1-methylxanthine], the “% GV” value ([2]; 36-40 hours) was 10.3%, the “% GVBD” value ([2]; 36-40 hours) was 43.6% and the “% PB” value ([2]; 36-40 hours) was 46.2%. For the same compound, the “% GV” value ([2]; 42-44 hours) was 9.4%, the “% GVBD” value ([2]; 42-44 hours) was 28.1% and the “% PB” value ([2]; 42-44 hours) was 62.5%. For the same compound, the “% GV” value ([2]; 30 hours) was 11.1%, the “% GVBD” value ([2]; 30 hours) was 48.1% and the “% PB” value ([2]; 30 hours) was 40.7%. The “% GV” value ([2]; 48 hours) was 10.3%, the “% GVBD” value ([2]; 48 hours) was 28.2% and the “% PB” value ([2]; 48 hours) was 61.5%. The “COC cAMP levels during pre-IVM” value [3] was “maintained cAMP levels for 2 hours” and the “development to the blastocyst stage” value ([4]; 30-60 minutes pre-IVM, IVM with 20 μM cilostamide, FIG. 11B) was “significantly higher than control”.
With `CN(C(=O)CCCOc1ccc2[nH]c(=O)ccc2c1)C1CCCCC1` [cilostamide] the “levels of gap junctional communication” value [5] was “had no effect in maintaining the level of gap junctional communication”, the “rates of GVBD” value ([6]; 2 h pre-IVM, 7 h IVM with FSH and cilostamide 20 μM, all pre-IVM treatments, FIG. 5) was “significantly lowered the rates of GVBD” and the “oocytes at GV IV” value ([6]; 9 hours, collection medium lacking cAMP modulators, 7 h IVM+cilostamide, FIG. 6E) was 51%±10. The “oocytes at M I stage” value ([6]; 20 hours of IVM with cilostamide, absence of FSH, FIG. 8A) was 36%±4, the “oocytes at M I stage” value ([6]; 20 hours of IVM+cilostamide, presence of FSH, FIG. 8B) was 21%±4 and the “oocytes progressed to M II stage” value ([6]; 24 hours of IVM with cilostamide, absence of FSH, FIG. 8A) was 50%. For the same compound, the “oocytes arrested at the M I stage” value ([6]; cilostamide, absence of FSH, 24 hours of culture, FIG. 8A) was 40-50%, the “effect of dose on resumption of meiosis” value ([2]; cilostamide 0.1 μM) was “non-inhibiting” and the “Germinal Vesicle Breakdown” value ([2]; cilostamide 0.1 μM during IVM (n = 39)) was 44%. For the same compound, the “effect of dose on resumption of meiosis” value ([2]; cilostamide 1.0 μM) was “inhibiting dose”, the “Germinal Vesicle Breakdown” value ([2]; cilostamide 1.0 μM during IVM (n = 38)) was 13% and the “% Blastocysts” value ([4]; collection phase CM without cAMP modulators, IVM +cilostamide, maturation time 24) was 22%.
